Results on 4 molecules are retold here after patent US20120070421A1 (priority 2009, published 2012).

SMILES strings stand for the structures. Like-named read-outs stand apart in the source and are kept apart here.

The subject of experiment [1] is Plasmopara viticola. The experiment in a line: Green house: fungicidal control of grape downy mildew, protective spray on grape cuttings. The note with it: single active, grape plants, sprayed 1 day before inoculation. The class given is in vivo. The protocol: The stock solution were prepared: a mixture of acetone and/or dimethylsulfoxide and the wetting agent/emulsifier Wettol, which is based on ethoxylated alkylphenoles, in a relation (volume) solvent-emulsifier of 99 to 1 was added to 25 mg of the compound to give a total of 10 ml. Water was then added to total volume of 100 ml. This stock solution was diluted with the described solvent-emulsifier-water mixture to the given concentration.
The visually determined percentages of infected leaf areas are converted into efficacies in % of the untreated control.
The efficacy (E) is calculated as follows using Abbot's formula: […]
α corresponds to the fungicidal infection of the treated plants in % and β corresponds to the fungicidal infection of the untreated (control) plants in %
An efficacy of 0 means that the infection level of the treated plants corresponds to that of the untreated control plants; an efficacy of 100 means that the treated plants were not infected.
The expected efficacies of active compound combinations were determined using Colby's formula (Colby, S. R. “Calculating synergistic and antagonistic responses of herbicide combinations”, Weeds, 15, pp. 20-22, 1967) and compared with the observed efficacies.
Colby's formula: E=x+y−x·y/100
E expected efficacy, expressed in % of the untreated control, when using the mixture of the active compounds A and B at the concentrations a and b x efficacy, expressed in % of the untreated control, when using the active compound A at the concentration a y efficacy, expressed in % of the untreated control, when using the active compound B at the concentration b.
Grape cuttings were grown in pots to the 4 to 5 leaf stage. These plants were sprayed to run-off with an aqueous suspension, containing the concentration of active ingredient or their mixture mentioned in the table below. The plants were allowed to air-dry. […] Then the extent of fungal attack on the lower leaf surface was visually assessed as % diseased leaf area.

The test system of experiment [2] is Pyricularia oryzae. The class given is cell-based. The note with it: single active, 7 days after inoculation.
The subject of experiment [3] is Phytophthora infestans. The class given is cell-based. Particulars: 0.00025 ppm, single active, 7 days after inoculation.

For `Cn1cc(C(=O)Nc2ccccc2-c2cc(F)c(F)c(F)c2)c(C(F)F)n1`, the Observed efficacy in experiment [1] (0.016 ppm) came out at 0%.

`Cc1cc(C(F)(F)F)nn1CC(=O)N1CCC(c2nc(C(=O)N(C)[C@@H]3CCCc4ccccc43)cs2)CC1` [2-{1-[2-(5-methyl-3-trifluoromethyl-pyrazol-1-yl)-acetyl]-piperid-4-yl}-thiazole-4-carboxylic acid methyl-(R)-1,2,3,4-tetrahydro-naphthalen-1-yl-amide]: the Observed efficacy in experiment [2] (0.063 ppm) is 1%; in experiment [2] (63 ppm) it was 28%; in experiment [3], 0%; in experiment [1] (0.063 ppm) it was 67%.

As for `CCCCCCCCc1c(CC)nc2ncnn2c1N` [drawing 4], in experiment [1] (0.016 ppm), the Observed efficacy is given as 11%.

For the molecule `CCCCCCCCc1c(CC)nc2ncnn2c1N` [drawing 13, reference compound], the Observed efficacy in experiment [2] (4 ppm) was found to be 10%.
